Results published in the supplement of paper PMC10307832.

Compound: CC(C)(C)c1nc(-c2cccc(NS(=O)(=O)c3c(F)cccc3F)c2F)c(-c2ccnc(N)n2)s1 [Dabrafenib] + CC(=O)c1c(C)c2cnc(Nc3ccc(N4CCNCC4)cn3)nc2n(C2CCCC2)c1=O [Palbociclib] (partner 0.5 µM)
Test: relative viability (nuclei count vs DMSO), 5 days (fraction); higher = more cells survive
Conditions: first compound 0.3 µM
In short: (§1)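 One day after seeding in 1536-well plates, lung cancer cell lines were dosed by pin tool. Dosing was either single-drug or a fixed anchor-drug dose plus five library-drug doses (not always all listed) in √10 steps. After 5 days, nuclei were stained in one fix-and-stain step and counted on 4× images, and relative viability is the nuclei count of treated wells over that of vehicle wells, given as the median of duplicate plates.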

Q: NCI-H1395 was tested. Which relative viability did it give?
A: 0.623

Q: Which relative viability does the source give for SK-MES-1 here?
A: 0.31

Compound: NC(=O)c1ccc(N(C(N)=O)c2c(F)cccc2F)nc1-c1ccc(F)cc1F [VX-702] + N=C(N)NC(=N)NCCc1ccccc1 [Phenformin] (partner 250 µM)
Test: as above
Conditions: first compound 0.02 µM
In short: as §1

Q: Which relative viability does the source give for LC-2-ad here?
A: 0.574

Q: With 201T as the cell line, how does the relative viability read?
A: 0.43

Q: How did the relative viability turn out when NCI-H1666 was run?
A: 0.562

Q: NCI-H2023 was tested. Which relative viability did it give?
A: 0.407

Q: How did the relative viability turn out when NCI-H322M was run?
A: 0.744

Q: HARA was tested. Which relative viability did it give?
A: 0.433

Q: How did the relative viability turn out when NCI-H1395 was run?
A: 0.465

Q: With SK-MES-1 as the cell line, how does the relative viability read?
A: 0.678

Same assay, conditions: first compound 0.2 µM

Q: LC-2-ad was tested. Which relative viability did it give?
A: 0.647

Q: For 201T, which relative viability is on record?
A: 0.457

Q: For NCI-H2023, which relative viability is on record?
A: 0.469

Q: Which relative viability does the source give for NCI-H322M here?
A: 0.757

Q: How did the relative viability turn out when HARA was run?
A: 0.42

Q: How did the relative viability turn out when NCI-H1395 was run?
A: 0.445

Q: With SK-MES-1 as the cell line, how does the relative viability read?
A: 0.663

Same assay, conditions: first compound 0.6325 µM

Q: With LC-2-ad as the cell line, how does the relative viability read?
A: 0.551

Q: Which relative viability does the source give for 201T here?
A: 0.453

Q: For NCI-H1666, which relative viability is on record?
A: 0.563

Q: For NCI-H2023, which relative viability is on record?
A: 0.413

Q: Which relative viability does the source give for NCI-H322M here?
A: 0.742

Q: Which relative viability does the source give for HARA here?
A: 0.599

Q: NCI-H1395 was tested. Which relative viability did it give?
A: 0.454

Q: SK-MES-1 was tested. Which relative viability did it give?
A: 0.725

Same assay, conditions: first compound 2 µM

Q: For LC-2-ad, which relative viability is on record?
A: 0.612

Q: How did the relative viability turn out when 201T was run?
A: 0.434

Q: NCI-H1666 was tested. Which relative viability did it give?
A: 0.633

Q: With NCI-H2023 as the cell line, how does the relative viability read?
A: 0.559

Q: For NCI-H322M, which relative viability is on record?
A: 0.915

Q: How did the relative viability turn out when HARA was run?
A: 0.569

Q: NCI-H1395 was tested. Which relative viability did it give?
A: 0.46

Q: How did the relative viability turn out when SK-MES-1 was run?
A: 0.73

Compound: CC(C)(C)c1nc(-c2cccc(NS(=O)(=O)c3c(F)cccc3F)c2F)c(-c2ccnc(N)n2)s1 [Dabrafenib] + N=C(N)NC(=N)NCCc1ccccc1 [Phenformin] (partner 250 µM)
Test: as above
Conditions: first compound 0.003 µM
In short: as §1

Q: For 201T, which relative viability is on record?
A: 0.423

Q: Which relative viability does the source give for NCI-H1666 here?
A: 0.483

Q: With NCI-H2023 as the cell line, how does the relative viability read?
A: 0.4

Q: How did the relative viability turn out when HARA was run?
A: 0.448

Q: How did the relative viability turn out when NCI-H1395 was run?
A: 0.325

Q: With SK-MES-1 as the cell line, how does the relative viability read?
A: 0.582

Same assay, conditions: first compound 0.009487 µM

Q: For LC-2-ad, which relative viability is on record?
A: 0.594

Q: Which relative viability does the source give for 201T here?
A: 0.428

Q: With NCI-H1666 as the cell line, how does the relative viability read?
A: 0.554

Q: Which relative viability does the source give for NCI-H2023 here?
A: 0.406

Q: For NCI-H322M, which relative viability is on record?
A: 0.86

Q: With HARA as the cell line, how does the relative viability read?
A: 0.46

Q: For NCI-H1395, which relative viability is on record?
A: 0.462

Q: SK-MES-1 was tested. Which relative viability did it give?
A: 0.757

Same assay, conditions: first compound 0.03 µM

Q: For LC-2-ad, which relative viability is on record?
A: 0.587

Q: With 201T as the cell line, how does the relative viability read?
A: 0.372

Q: With NCI-H1666 as the cell line, how does the relative viability read?
A: 0.576

Q: NCI-H2023 was tested. Which relative viability did it give?
A: 0.419

Q: For NCI-H322M, which relative viability is on record?
A: 0.579

Q: Which relative viability does the source give for NCI-H1395 here?
A: 0.447

Q: How did the relative viability turn out when SK-MES-1 was run?
A: 0.665

Same assay, conditions: first compound 0.09487 µM

Q: How did the relative viability turn out when LC-2-ad was run?
A: 0.517

Q: With 201T as the cell line, how does the relative viability read?
A: 0.41

Q: For NCI-H1666, which relative viability is on record?
A: 0.583

Q: For NCI-H2023, which relative viability is on record?
A: 0.423

Q: Which relative viability does the source give for NCI-H322M here?
A: 0.744

Q: How did the relative viability turn out when HARA was run?
A: 0.364

Q: For NCI-H1395, which relative viability is on record?
A: 0.403

Q: SK-MES-1 was tested. Which relative viability did it give?
A: 0.543

Same assay, conditions: first compound 0.3 µM

Q: With LC-2-ad as the cell line, how does the relative viability read?
A: 0.621

Q: How did the relative viability turn out when 201T was run?
A: 0.465

Q: With NCI-H1666 as the cell line, how does the relative viability read?
A: 0.68

Q: Which relative viability does the source give for NCI-H2023 here?
A: 0.443

Q: Which relative viability does the source give for NCI-H322M here?
A: 0.502

Q: With HARA as the cell line, how does the relative viability read?
A: 0.511

Q: For NCI-H1395, which relative viability is on record?
A: 0.437

Q: For SK-MES-1, which relative viability is on record?
A: 0.508
